Source: patent US9120777B2, “Heterocyclic compound” (Takeda Pharmaceutical Company Limited, priority 2013, dated 2015)

These compounds were tested on Female KK-Ay/Ta mice, a type 2 diabetes model (assay: Antidiabetic effect in mice (glycated hemoglobin after 2 weeks of treatment)). Conditions: 1 mg/kg orally once a day for 2 weeks, n=8.
Format: in vivo
Description: Antidiabetic Effect in Mice
Female KK-Ay/Ta mice (Clea Japan Inc.), a type 2 diabetes model, were used in this study. At the age of 7-week old, blood sample were collected from tail vein at 8:00 am, and animals were divided into separate groups (n=8) based on glycated hemoglobin (GHb), plasma glucose, insulin, triglyceride levels and body weight. Vehicle (0.5% (w/v) methylcellulose) or compounds (suspended in vehicle) were orally administered once a day for 2 weeks. After 2 weeks of treatment, GHb was determined by auto-analyzer HLC-723G8 (TOSOH, Japan).

Row | SMILES | average of delta GHb (%)
1 | Cc1c(C(=O)O)ccn(C2CCN(Cc3cc(C4CC4)c(-c4ccc(F)cc4)c(F)c3OC(C)C)CC2)c1=O [Example 49, 1-(1-((6-Cyclopropyl-2,4′-difluoro-3-isopropoxybiphenyl-4-yl)methyl)piperidin-4-yl)-3-methyl-2-oxo-1,2-dihydropyridine-4-carboxylic acid] | −0.51

These compounds were tested against T1, human SSTR5 (Homo sapiens, UniProt P35346) (assay: Evaluation of human SSTR5 antagonist activity using intracellular cAMP concentration as index). Conditions: 1 uM test compound; CHO (dhfr-) cells stably expressing human SSTR5; 0.1 nM somatostatin 28 and 0.3 uM forskolin; HTRF cAMP; read-out: Inhibition rate against SSTR5 at 1 uM.
T1 construct: expressed in transfected cells
T1 sequence (P35346 whole entry): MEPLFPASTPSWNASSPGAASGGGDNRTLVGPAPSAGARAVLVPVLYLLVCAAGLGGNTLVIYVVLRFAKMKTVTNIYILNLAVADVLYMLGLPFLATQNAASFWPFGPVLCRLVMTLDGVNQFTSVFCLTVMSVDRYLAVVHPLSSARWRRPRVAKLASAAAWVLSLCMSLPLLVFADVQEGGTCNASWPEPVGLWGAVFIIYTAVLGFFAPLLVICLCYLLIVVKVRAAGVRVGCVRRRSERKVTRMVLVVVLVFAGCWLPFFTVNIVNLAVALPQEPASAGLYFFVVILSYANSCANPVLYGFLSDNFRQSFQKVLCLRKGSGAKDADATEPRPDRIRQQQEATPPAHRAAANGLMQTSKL
Format: cell-based
Description: Evaluation of Human SSTR5 Antagonist Activity Using Intracellular cAMP Concentration as Index
The intracellular cAMP concentration was measured using HTRF cAMP dynamic 2 kit (Cisbio Bioassays). Each test compound diluted with an assay buffer (HBSS (Invitrogen Corp.) containing 5 mM HEPES (pH 7.5) (Invitrogen Corp.), 0.1% fatty-acid free BSA (Sigma-Aldrich Corp.), and 500 u (“u” represents “micro”)M IBMX (Wako Pure Chemical Industries, Ltd.)) was added at a concentration of 2 uL/well to a 384-well white plate (Greiner Bio-One Co., Ltd.) to give the final concentration of 1 uM. A frozen stock of CHO (dhfr−) cells stably expressing the human SSTR5 gene (Accession No. NM_001053) was thawed in a thermostat bath of 37 C and suspended in a subculture medium (MEM alpha (Wako Pure Chemical Industries, Ltd.), 10% dialyzed serum (Gemini Bio-Products), and 50 ug/mL gentamicin (Invitrogen Corp.). After centrifugation of the cell suspension, the cells were resuspended in an assay buffer and added at a concentration of 2 uL/well (about 4,000 cells/well) to the plate. The compound and the cells were incubated for 15 minutes, and then, an assay buffer containing 0.1 nM (final concentration) somatostatin 28 (Toray Research Center) and 0.3 uM (final concentration) forskolin (Wako Pure Chemical Industries, Ltd.) was added thereto at a concentration of 2 uL/well, followed by incubation at room temperature for 30 minutes. cAMP-d2 and anti-cAMP-cryptate were each added thereto at a concentration of 3 uL/well. The plate was left standing at room temperature for 60 minutes. Then, the fluorescence resonance energy transfer (FRET) intensity was measured using Multi-label reader Envision (PerkinElmer). The FRET intensity of the wells supplemented with the test compound group was converted to a cAMP concentration using a calibration curve prepared from the FRET intensity of a well group containing an assay buffer supplemented with an arbitrary concentration of cAMP. The inhibitory activity of each compound was calculated according to the following expression: Inhibitory activity(%)=(C−B)/(A−B)×100 A: cAMP concentration calculated from the wells supplemented with 0.3 uM forskolin B: cAMP concentration calculated from the wells supplemented with 0.3 uM forskolin and 0.1 nM somatostatin 28 C: cAMP concentration calculated from the wells supplemented with 0.3 uM forskolin, 0.1 nM somatostatin 28, and 1 uM test compound

Row | inhibition at 1 µM [%] | SMILES
2 | 94 | CCc1c(C(=O)O)ccn(C2CCN(Cc3cc(C4CC4)c(-c4ccc(F)cc4F)cc3OC(C)C)CC2)c1=O [Example 6, 1-(1-((2-cyclopropyl-2′,4′-difluoro-5-isopropoxybiphenyl-4-yl)methyl)piperidin-4-yl)-3-ethyl-2-oxo-1,2-dihydropyridine-4-carboxylic acid]
3 | 89 | CCc1c(C(=O)O)ccn(C2CCN(Cc3cc(C4CC4)c(-c4ccc(F)cc4)cc3OC(C)C)CC2)c1=O [Example 51, 1-(1-((2-cyclopropyl-4′-fluoro-5-isopropoxybiphenyl-4-yl)methyl)piperidin-4-yl)-3-ethyl-2-oxo-1,2-dihydropyridine-4-carboxylic acid]
4 | 134 | CC(C)Oc1nc(-c2ccc(F)cc2)c(C2CC2)cc1CN1CCC(n2ccc(C(=O)O)cc2=O)CC1 [Example 2, 1-(1-((5-cyclopropyl-6-(4-fluorophenyl)-2-isopropoxypyridin-3-yl)methyl)piperidin-4-yl)-2-oxo-1,2-dihydropyridine-4-carboxylic acid]
5 | 124 | CCc1c(C(=O)O)ccn(C2CCN(Cc3cc(C4CC4)c(-c4ccc(F)cc4F)c(F)c3OC(C)C)CC2)c1=O [Example 7, 1-(1-((6-cyclopropyl-2,2′,4′-trifluoro-3-isopropoxybiphenyl-4-yl)methyl)piperidin-4-yl)-3-ethyl-2-oxo-1,2-dihydropyridine-4-carboxylic acid]
6 | 120 | CC(C)Oc1cc(C2CC2)c(C2CC2)cc1CN1CCC(n2ccc(C(=O)O)cc2=O)CC1 [Example 4, 1-(1-(4,5-dicyclopropyl-2-isopropoxybenzyl)piperidin-4-yl)-2-oxo-1,2-dihydropyridine-4-carboxylic acid]
7 | 133 | CCc1c(C(=O)O)ccn(C2CCN(Cc3cc(C4CC4)c(-c4ccc(F)cc4)c(F)c3OC(C)C)CC2)c1=O [Example 43, 1-(1-((6-cyclopropyl-2,4′-difluoro-3-isopropoxybiphenyl-4-yl)methyl)piperidin-4-yl)-3-ethyl-2-oxo-1,2-dihydropyridine-4-carboxylic acid]
8 | 116 | CC(C)Oc1cc(-c2ccc(F)cc2)c(C2CC2)cc1CN1CCC(n2ccc(C(=O)O)cc2=O)CC1 [Example 3, 1-(1-((2-cyclopropyl-4′-fluoro-5-isopropoxybiphenyl-4-yl)methyl)piperidin-4-yl)-2-oxo-1,2-dihydropyridine-4-carboxylic acid]
9 | 111 | CCc1c(C(=O)O)ccn(C2CCN(Cc3cc(C4CC4)c(C4CC4)c(F)c3OC(C)C)CC2)c1=O [Example 47, 1-(1-(4,5-dicyclopropyl-3-fluoro-2-isopropoxybenzyl)piperidin-4-yl)-3-ethyl-2-oxo-1,2-dihydropyridine-4-carboxylic acid]
10 | 98 | CCOc1c(CN2CCC(n3ccc(C(=O)O)c(CC)c3=O)CC2)cc(C2CC2)c(-c2ccc(F)cc2F)c1F [Example 45, 1-(1-((6-cyclopropyl-3-ethoxy-2,2′,4′-trifluorobiphenyl-4-yl)methyl)piperidin-4-yl)-3-ethyl-2-oxo-1,2-dihydropyridine-4-carboxylic acid]
11 | 84 | CCOc1cc(C2CCC2)c(C2CC2)cc1CN1CCC(n2ccc(C(=O)O)cc2=O)CC1 [Example 1, 1-(1-(4-cyclobutyl-5-cyclopropyl-2-ethoxybenzyl)piperidin-4-yl)-2-oxo-1,2-dihydropyridine-4-carboxylic acid]
12 | 88 | CC(C)Oc1c(CN2CCC(n3ccc(C(=O)O)cc3=O)CC2)cc(C2CC2)c(-c2ccc(F)cc2F)c1Cl [Example 5, 1-(1-((2-chloro-6-cyclopropyl-2′,4′-difluoro-3-isopropoxybiphenyl-4-yl)methyl)piperidin-4-yl)-2-oxo-1,2-dihydropyridine-4-carboxylic acid]
